These molecules were tested against T1, glucocorticoid receptor (Homo sapiens, UniProt P04150) (assay: Ligand binding assay (GRBind), 3H-dexamethasone displacement in HeLa cell lysate). Conditions: 3H-DEX tracer.
T1 construct: endogenous in cells; host or cells: HeLa (ATCC) cell lysate supernatant
T1 sequence (P04150 1-777): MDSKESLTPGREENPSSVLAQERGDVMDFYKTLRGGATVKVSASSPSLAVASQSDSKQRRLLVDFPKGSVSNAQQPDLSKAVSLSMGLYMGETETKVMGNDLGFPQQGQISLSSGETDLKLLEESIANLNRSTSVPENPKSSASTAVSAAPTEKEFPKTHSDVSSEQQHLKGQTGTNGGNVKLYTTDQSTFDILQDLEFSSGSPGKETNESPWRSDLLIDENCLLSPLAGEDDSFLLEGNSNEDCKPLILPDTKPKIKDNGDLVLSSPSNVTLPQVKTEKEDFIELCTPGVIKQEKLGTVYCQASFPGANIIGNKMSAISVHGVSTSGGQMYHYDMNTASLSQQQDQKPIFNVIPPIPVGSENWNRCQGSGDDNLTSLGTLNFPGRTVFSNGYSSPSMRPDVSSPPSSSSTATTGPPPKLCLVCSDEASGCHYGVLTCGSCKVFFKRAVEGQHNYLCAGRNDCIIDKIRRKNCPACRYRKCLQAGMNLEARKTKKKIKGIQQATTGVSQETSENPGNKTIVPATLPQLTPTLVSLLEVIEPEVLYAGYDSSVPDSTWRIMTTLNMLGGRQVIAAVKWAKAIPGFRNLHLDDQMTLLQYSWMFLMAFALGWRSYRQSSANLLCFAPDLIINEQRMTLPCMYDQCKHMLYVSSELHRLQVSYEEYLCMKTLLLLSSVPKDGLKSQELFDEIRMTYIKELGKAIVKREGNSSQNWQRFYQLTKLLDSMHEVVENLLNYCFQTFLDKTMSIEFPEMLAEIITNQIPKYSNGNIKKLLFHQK
Procedure: Binding Buffer: TEGM (10 mM Tris-HCl, 1 mM EDTA, 10% glycerol, 1 mM betamecaptoethanol, 10 mM Sodium Molybdate, pH 7.2)
50% HAP Slurry: Calbiochem Hydroxylapatite, Fast Flow, in 10 mM Tris, pH 8.0 and 1 mM EDTA.
Wash Buffer: 40 mM Tris, pH7.5, 100 mM KCl, 1 mM EDTA and 1 mM EGTA. 95% EtOH Dexmethasone-methyl-3H, (DEXA*); (Amersham cat#TRK645) Dexamethasone(DEX) (Sigma, cat#01756):
Hydroxylapatite Fast Flow; Calbiochem Cat#391947
25 Molybdate=Molybdic Acid (Sigma, M1651)
5 Cells (Hall R. E., et al., European Journal of Cancer, 30A: 484-490 (1994)) HeLa (ATCC) cultured in RPMI 1640 (Gibed 11835-055) containing 20 mM Hepes, 4 mM L-glu, 10 ug/ml of human insulin (Sigma, 1-0259), 10% FBS and 20 uglml of Gentamicin (Gibco#15710072) are rinsed twice in PBS. Phenol red-free Trypsin-EDTA is diluted in the same PBS 1:10. The cell layers are rinsed with IX Trypsin, extra Trypsin is poured out, and the cell layers are incubated at 37° C. for 2 min. The flask is tapped and checked for signs of cell detachment. Once the cells begin to slide off the flask, the complete media is added. The cells are counted at this point, then diluted to the appropriate concentration and split into flasks or dishes for further culturing (Usually 1:3 to 1:6 dilution).
Preparation of HeLa Cell Lysate
When the cells are 70 to 85% confluent, they are detached as described above, and collected by centrifuging at 1000 g for 10 min at 4° C. The cell pellet is washed twice with TEGM (10 mM Tris-HCl, 1 mM EDTA, 10% glycerol, 1 mM beta-mercaptoethanol, 10 mM Sodium Molybdate, pH 7.2). After the final wash, the cells are resuspended in TEGM at a concentration of 10^7 cells/mL. The cell suspension is snap frozen in liquid nitrogen or ethanol/dry ice bath and transferred to −80° C. freezer on dry ice. Before setting up the binding assay, the frozen samples are left on ice-water to just thaw. Then the samples are centrifuged at 12,500 g to 20,000 g for 30 min at 4° C. The supernatant is used to set-up assay right away. If using 50 μL of supernatant, the test compound can be prepared in 50 μL of the TEGM buffer.
Procedure for Multiple Compound Screening
1×TEGM buffer is prepared, and the isotope-containing assay mixture is prepared in the following order: EtOH (2% final concentration in reaction), 3H-DEX (Amersham Biosciences) and 1×TEGM. [e.g. For 100 samples, 200 JlL (100×2) of EtOH+4.25 JlL of 1:10 ^3H-Dex stock+2300 μL (100×23) 1×TEGM]. The compound is serially diluted, e.g., if starting final conc. is 1 μM, and the compound is in 25 μL of solution, for duplicate samples, 75 μL of 4×1 μM solution is made and 3 μL of 100). 1M is added to 72 μL of buffer, and 1:5 serial dilution.
25 μL of ^3H-DEX (6 nM) trace and 25 μL, compound solution are first mixed together, followed by addition of 50 μL receptor solution. The reaction is gently mixed, spun briefly at about 200 rpm and incubated at 4° C. overnight. 100 μL of 50% HAP slurry is prepared and added to the incubated reaction which is then vortexed and incubated on ice for 5 to 10 min. The reaction mixture is vortexed twice more to resuspend HAP while incubating reaction. The samples in 96-well format are then washed in wash buffer using the FilterMate™ Universal Harvester plate washer (Packard). The washing process transfers HAP pellet containing ligand-bound expressed receptor to Unifilter-96 GFIB filter plate (Packard). The HAP pellet on the filter plate is incubated with […] of MICROSCINT (Packard) scintillant for 30 min before being counted on the TopCount microscintillation counter (Packard). IC50s are calculated using DEX as a reference.

| Compound | Ki |
| --- | --- |
| NC(=O)C(O)c1ccccc1CC[C@]1(O)CCC2=Cc3c(cnn3-c3ccc(F)cc3)C[C@@]21C1CC1 (single isomer, unassigned) [Example 3b] | 1.79 nM |
| NC(=O)c1cccnc1CC[C@]1(O)CCC2=Cc3c(cnn3-c3ccc(F)cc3)C[C@@]21C1CC1 [Example 1, 2-{2-[(4aR,5R)-4a-Cyclopropyl-1-(4-fluorophenyl)-5-hydroxy-1,4,4a,5,6,7-hexahydrocyclopenta[f]indazol-5-yl]ethyl}pyridine-3-carboxamide] | 4.51 nM |
| NC(=O)c1cc(F)cnc1CC[C@]1(O)CCC2=Cc3c(cnn3-c3ccc(F)cc3)C[C@@]21C1CC1 [Example 4, 2-{2-[(4aR,5R)-4a-Cyclopropyl-1-(4-fluorophenyl)-5-hydroxy-1,4,4a,5,6,7-hexahydrocyclopenta[f]indazol-5-yl]ethyl}-5-fluoropyridine-3-carboxamide] | 1.98 nM |
| CC[C@]12Cc3cnn(-c4cccnc4)c3C=C1CC[C@@]2(O)CCc1ccccc1C#N [Example 5, 2-{2-[(4aS,5R)-4a-Ethyl-5-hydroxy-1-(pyridin-3-yl)-1,4,4a,5,6,7-hexahydrocyclopenta[f]indazol-5-yl]ethyl}benzonitrile] | 2.01 nM |
| CC[C@]12Cc3cnn(-c4ccccc4)c3C=C1CC[C@@]2(O)CCc1ccc(F)cc1C(N)=O [Example 6] | 3.17 nM |
| NC(=O)c1ccccc1CC[C@]1(O)CCC2=Cc3c(cnn3-c3cccc(F)c3)C[C@@]21C1CC1 [Example 7, 2-{2-[(4aR,5R)-4a-Cyclopropyl-1-(3-fluorophenyl)-5-hydroxy-1,4,4a,5,6,7-hexahydrocyclopenta[f]indazol-5-yl]ethyl}benzamide] | 3.22 nM |
| CC[C@]12Cc3cnn(-c4ccc(F)cc4)c3C=C1CC[C@@]2(O)CCc1ccc(F)cc1C(N)=O [Example 8, 2-{2-[(4aS,5R)-4a-Ethyl-1-(4-fluorophenyl)-5-hydroxy-1,4,4a,5,6,7-hexahydrocyclopenta[f]indazol-5-yl]ethyl}-5-fluorobenzamide] | 1.27 nM |
| CC[C@]12Cc3cnn(-c4cccnc4)c3C=C1CC[C@@]2(O)CCc1ccc(F)cc1C#N [Example 9, 2-{2-[(4aS,5R)-4a-Ethyl-5-hydroxy-1-(pyridin-3-yl)-1,4,4a,5,6,7-hexahydrocyclopenta[f]indazol-5-yl]ethyl}-5-fluorobenzonitrile] | 1.99 nM |
| CC[C@]12Cc3cnn(-c4cccnc4)c3C=C1CC[C@@]2(O)CCc1cccc(F)c1C#N [Example 10, 2-{2-[(4aS,5R)-4a-Ethyl-5-hydroxy-1-(pyridin-3-yl)-1,4,4a,5,6,7-hexahydrocyclopenta[f]indazol-5-yl]ethyl}-6-fluorobenzonitrile] | 2.59 nM |
| CC[C@]12Cc3cnn(-c4cccc(F)c4)c3C=C1CC[C@@]2(O)CCc1ccccc1C(N)=O [Example 11, 2-{2-[(4aS,5R)-4a-Ethyl-1-(3-fluorophenyl)-5-hydroxy-1,4,4a,5,6,7-hexahydrocyclopenta[f]indazol-5-yl]ethyl}benzamide] | 3.22 nM |
| CC[C@]12Cc3cnn(-c4cccc(F)c4)c3C=C1CC[C@@]2(O)CCc1cccc(F)c1C(N)=O [Example 12, 2-{2-[(4aS,5R)-4a-Ethyl-1-(3-fluorophenyl)-5-hydroxy-1,4,4a,5,6,7-hexahydrocyclopenta[f]indazol-5-yl]ethyl}-6-fluorobenzamide] | 1.85 nM |
| CC[C@]12Cc3cnn(-c4cccnc4)c3C=C1CC[C@@]2(O)CCc1ccccc1C(N)=O [Example 13, 2-{2-[(4aS,5R)-4a-Ethyl-5-hydroxy-1-(pyridin-3-yl)-1,4,4a,5,6,7-hexahydrocyclopenta[f]indazol-5-yl]ethyl}benzamide] | 28.4 nM |
| CC[C@]12Cc3cnn(-c4cccnc4)c3C=C1CC[C@@]2(O)CCc1cccc(F)c1C(N)=O [Example 14, 2-{2-[(4aS,5R)-4a-Ethyl-5-hydroxy-1-(pyridin-3-yl)-1,4,4a,5,6,7-hexahydrocyclopenta[f]indazol-5-yl]ethyl}-6-fluorobenzamide] | 8.68 nM |
| CC[C@]12Cc3cnn(-c4ccccc4)c3C=C1CC[C@@]2(O)CCc1cccc(F)c1C#N [Example 15, 2-{2-[(4aS,5R)-4a-Ethyl-5-hydroxy-1-phenyl-1,4,4a,5,6,7-hexahydrocyclopenta[f]indazol-5-yl]ethyl}-6-fluorobenzonitrile] | 1.28 nM |

More lines, now with the values ahead:

| Ki | Compound |
| --- | --- |
| 11.3 nM | CC[C@]12Cc3cnn(-c4ccccc4)c3C=C1CC[C@@]2(O)CC(O)c1ccccn1 (single isomer, unassigned) [Example 67a] |
| 5.46 nM | CC[C@]12Cc3cnn(-c4ccccc4)c3C=C1CC[C@@]2(O)CC(O)c1ccccn1 (single isomer, unassigned) [Example 67b] |
| 4.41 nM | CC[C@]12Cc3cnn(-c4ccc(F)cc4)c3C=C1CC[C@@]2(O)CC(O)c1ccc(F)cn1 (single isomer, unassigned) [Example 69a] |
| 2.91 nM | CC[C@]12Cc3cnn(-c4ccc(F)cc4)c3C=C1CC[C@@]2(O)CC(O)c1ccc(F)cn1 (single isomer, unassigned) [Example 69b] |
| 2.83 nM | OC(C[C@]1(O)CCC2=Cc3c(cnn3-c3ccc(F)cc3)C[C@@]21C1CC1)c1ccc(F)cn1 (single isomer, unassigned) [Example 79a] |
| 2.22 nM | CC[C@]12Cc3cnn(-c4ccc(F)cc4)c3C=C1CC[C@@]2(O)CCc1ccccn1 [Example 16, (4aS,5R)-4a-Ethyl-1-(4-fluorophenyl)-5-[2-(pyridin-2-yl)ethyl]-1,4,4a,5,6,7-hexahydrocyclopenta[f]indazol-5-ol] |
| 1.44 nM | CC[C@]12Cc3cnn(-c4ccc(F)cc4)c3C=C1CC[C@@]2(O)CCc1ncccc1F [Example 17, (4aS,5R)-4a-Ethyl-1-(4-fluorophenyl)-5-[2-(3-fluoropyridin-2-yl)ethyl]-1,4,4a,5,6,7-hexahydrocyclopenta[f]indazol-5-ol] |
| 1.73 nM | CC[C@]12Cc3cnn(-c4ccc(F)cc4)c3C=C1CC[C@@]2(O)CCc1cc(F)ccn1 [Example 18, (4aS,5R)-4a-Ethyl-1-(4-fluorophenyl)-5-[2-(4-fluoropyridin-2-yl)ethyl]-1,4,4a,5,6,7-hexahydrocyclopenta[f]indazol-5-ol] |

From US20120214847A1, “2-[1-PHENYL-5-HYDROXY-4a-SUBSTITUTED-HEXAHYDROCYCLOPENTA[F]INDAZOL-5-YL]ETHYL PHENYL DERIVATIVES AS GLUCOCORTICOID RECEPTOR LIGANDS” (Merck Sharp & Dohme Corp., priority 2009, published 2012)
